{"source": "patent US20120010296A1", "about": "“TREATING VARIOUS DISORDERS WITH CATECHOL-O-METHYL-TRANSFERASE INHIBITORS” (priority 2009, published 2012)", "type_in_all_cases": "in vivo, human", "key": {"kleptomania": {"system": "kleptomania", "assay": "Example 3: case report, treatment of kleptomania (K-SAS, stealing behavior)", "settings": "one patient", "excerpt": "Patient was a married, college-educated person with no children. They presented for psychiatric evaluation for “out-of-control” shoplifting that had been going on since early adulthood. Although never arrested for their shoplifting, they reported stealing approximately 90% of the times when they went shopping. […] They denied wanting or needing the items and in fact usually discarded them in the trash when they returned home. They reported that when they initially stole items in early adulthood the act gave them a “rush” or a thrill. Over the years, they described the behavior as “automatic” and without awareness for the consequences.\nThe diagnosis of kleptomania was confirmed using the Structured Clinical Interview for Kleptomania. Patient also underwent a comprehensive psychiatric evaluation using the Structured Clinical Interview for DSM-IV (SCID-I and SCID-II). […] Severity of kleptomania was assessed using the Kleptomania Symptom Assessment Scale (K-SAS) at baseline and periodically through […] follow-up. The K-SAS score at baseline was 28 (moderate severity).\n(§1) Over a period of two years, patient underwent serial trials of several medications. […] “I have gone to stores several times without stealing anything.” After 6 weeks, the benefit seemed to wane and their dose was increased to 100 mg po bid. […] They have been maintained on that dose for 5 months without stealing. They report mild urges to steal when in a store but feels able to control their behavior. Patient's K-SAS score has consistently been 6-8 over the last few months."}, "pathological gambling [1]": {"system": "pathological gambling", "assay": "Example 1 / Tolcapone Study: cognitive tasks (IED set shift, SST) before and after treatment", "excerpt": "(§2) The cognitive tasks require subjects to disengage responding from the previously correct dimension in favor of responding to a novel dimension. Failure on the task may be due to the inability of the individual to disengage from a previously rewarding process thus perseverating on the incorrect response pattern."}, "[2]": {"system": "attention deficit disorder (ADD)", "assay": "Example 4: case report, treatment of ADD", "settings": "one patient", "procedure": "Patient was a married, person, currently in nursing school. They have had life-long difficulties with organizing tasks, following through on instructions and completing tasks. Learning in classes and performing school work has been extremely difficult. Patient would tell each and every teacher that they have attention deficit disorder (ADD), they are slow to understand and that they need more time to complete examinations. Patient has been taking methylphenidate ([…]) 10 mg twice a day to cope with these difficulties. […] Patient said “I was able to answer 12 out of 12 questions, that was the first time for me.” After one week, patient increased tolcapone does to 100 mg twice a day. […] They found themself organizing future tasks in orderly manner and also completing the tasks mush more efficiently, something they just have not been able to do prior to now. Their spouse noticed this and commented this to them. […] Patient is much satisfied with the results of the tolcapone treatment. Follow-up interview two weeks post tolcapone 100 mg twice a day: “I got over my classes at 3:[…]/ I stayed '[…] just fired off this assignment. I met all objectives. I got 15 out of 15 points. This has never happened to me before. Prior to tolcapone, I would scramble, hodge-podge, . . . I would just give up. The whole thing is getting better and better. I feel that I can organize things better now.” “Look what my teacher wrote, 'very well organized'.” 30 out of 30, 27 out of 27 points! “I never got these assignments done. I can't explain it but this is phenomenal.” “I am sleeping better now, my anxiety has gone down, I have more energy now.” This is a patient who had been on methylphenidate 10 mg twice a day."}, "pathological gambling [3]": {"system": "pathological gambling", "assay": "Example 2: performance on cognitive tasks (IDED, SST) in pathological gamblers treated with tolcapone", "excerpt": "as §2, with “on the ED task may” for “on the task may”"}, "[4]": {"system": "nicotine dependent problem gambling subjects", "assay": "Change in cigarette smoking in nicotine dependent problem gambling subjects taking tolcapone", "settings": "10-Week Endpoint (n = 6); baseline 25.8 ± 11.1"}, "[5]": {"assay": "Example 3: laboratory testing of liver aminotransferases every two weeks", "settings": "one patient", "procedure": "as §1"}, "pathological gambling [6]": {"system": "pathological gambling", "assay": "Example 2: tolcapone study in pathological gambling, primary and secondary measures", "excerpt": "The effectiveness of COMT inhibitors to treat PG can be determined using known assessments, e.g., the Clinical Global Impression Scale (CGI), Yale Brown Obsessive Compulsive Scale Modified for Pathological Gambling (PG-YBOCS), the Gambling Symptom Assessment Scale (G-SAS), the Sheehan Disability Scale (SDS), the Hamilton Anxiety Rating Scale (HAM-A), the Hamilton Depression Rating Scale (HAM-D), the Perceived Stress Scale (PSS; used at baseline and study endpoint), and the Quality of Life Inventory (QOLI; used at baseline and study endpoint). In Example 2, twelve subjects have been enrolled with four of these individuals currently receiving tolcapone and yet to complete the study. […] In most open-label studies of pathological gambling, response rates are approximately 60-65%. Decrease in gambling symptoms was from a mean of 20.4 to 9.25 at endpoint using the PG-YBOCS. This compares to a mean decrease of 6 points on this same scale when used in treatment studies involving other medications."}, "pathological gambling [7]": {"system": "pathological gambling", "assay": "Example 1: open-label tolcapone study in pathological gambling (PG-YBOCS)", "excerpt": "The effectiveness of COMT inhibitors to treat PG can be determined using known assessments, e.g., the Clinical Global Impression Scale (CGI), Yale Brown Obsessive Compulsive Scale Modified for Pathological Gambling (PG-YBOCS), the Gambling Symptom Assessment Scale (G-SAS), the Sheehan Disability Scale (SDS), the Hamilton Anxiety Rating Scale (HAM-A), the Hamilton Depression Rating Scale (HAM-D), the Perceived Stress Scale (PSS; used at baseline and study endpoint), and the Quality of Life Inventory (QOLI; used at baseline and study endpoint). In example 1, six subjects have been enrolled in a study to determine the effects of administration of the COMT inhibitor tolcapone on gambling. Subjects receive 100 mg-300 mg of tolcapone by mouth per day for 8 weeks, which can be administered either once per day for the 100 mg dose, or multiple (e.g., 3) times per day for higher doses (e.g., 300 mg dose). Five of the 6 (83%) subjects have “responded” (i.e., greater than 35% on the primary outcome measure, the PG-YBOCS) to tolcapone. In most open-label studies of pathological gambling, response rates are approximately 65%. Decrease in gambling symptoms was from a mean of 20.4 to 8.0 at endpoint using the PG-YBOCS. This compares to a mean decrease of 6 points on this same scale when used in treatment studies involving other medications. The mean effective dose was 140 mg/day."}}, "data": [{"smiles": "CC1(C)O[C@@H]2[C@@H](CO[C@@]3(COS(N)(=O)=O)OC(C)(C)O[C@@H]23)O1", "note": "[Topiramate, topiramate]", "values": [{"measurement": "K-SAS score (urges to steal)", "setting": "kleptomania; monotherapy, 12 weeks at 150 mg/day, baseline 28", "result": 21}]}, {"smiles": "Cc1ccc(C(=O)c2cc(O)c(O)c([N+](=O)[O-])c2)cc1", "note": "[tolcapone]", "values": [{"measurement": "IED Total errors (stage 6), ID shift, Mean ± SD at EOS", "setting": "pathological gambling [1]; EOS, baseline 0.5 ± 1", "result": "0 ± 0"}, {"measurement": "SST Direction errors on stop and go trials, Mean ± SD at EOS", "setting": "pathological gambling [1]; EOS, baseline 2.75 ± 4.27", "result": "6.5 ± 11.03"}, {"measurement": "IED Total errors (stage 8), ED shift, Mean ± SD at EOS", "setting": "pathological gambling [1]; EOS, baseline 6.75 ± 5.91", "result": "3.5 ± 4.51"}, {"measurement": "IED Stages completed, Mean ± SD at EOS", "setting": "pathological gambling [1]; EOS, baseline 9 ± 0", "result": "9 ± 0"}, {"measurement": "IED Total errors (adjusted), Mean ± SD at EOS", "setting": "pathological gambling [1]; EOS, baseline 12.75 ± 6.5", "result": "17 ± 7.16"}, {"measurement": "IED Total errors, Mean ± SD at EOS", "setting": "pathological gambling [1]; EOS, baseline 12.75 ± 6.5", "result": "17 ± 7.16"}, {"measurement": "SST Median correct RT on GO trials, Mean ± SD at EOS", "setting": "pathological gambling [1]; EOS, baseline 530.5 ± 132.91", "result": "529 ± 155.66"}, {"measurement": "extradimensional set shift task (cognitive measures)", "setting": "pathological gambling [1]; Example 1", "result": "significant improvement"}, {"measurement": "ADD symptoms reported by the patient", "setting": "[2]; 100 mg in the morning, added to methylphenidate 10 mg twice a day", "result": "improved sense of well-being"}, {"measurement": "ADD symptoms reported by the patient", "setting": "[2]; 100 mg twice a day", "result": "further improvement in their symptoms"}, {"measurement": "side effects", "setting": "[2]; 100 mg twice a day", "result": "no side effects"}, {"measurement": "attentional issues, compared with methylphenidate", "setting": "[2]; chose to stay on tolcapone instead of methylphenidate", "result": "works better for their attentional issues"}, {"measurement": "extradimensional set shift task (cognitive measures)", "setting": "pathological gambling [3]; Example 2, neurocognitive results", "result": "significant improvement"}, {"measurement": "SST directional errors at endpoint", "setting": "pathological gambling [3]; endpoint, baseline 2 ± 3.07", "result": "4.71 ± 8.24"}, {"measurement": "IDED Stages completed at endpoint", "setting": "pathological gambling [3]; endpoint, baseline 8.5 ± 0.92", "result": "8.86 ± 0.38"}, {"measurement": "IDED total errors (adjusted) at endpoint", "setting": "pathological gambling [3]; endpoint, baseline 26.38 ± 21.84", "result": "20.14 ± 11.77"}, {"measurement": "SST SSRT at endpoint", "setting": "pathological gambling [3]; endpoint, baseline 149.8 ± 41.57", "result": "161.37 ± 29.11"}, {"measurement": "SST median go reaction time at endpoint", "setting": "pathological gambling [3]; endpoint, baseline 470.5 ± 111.67, in ms (unit assumed)", "result": "476.64 ± 138.11"}, {"measurement": "stealing behavior", "setting": "kleptomania; 100 mg po bid, after 3 weeks on the higher dose, maintained for 5 months without stealing", "result": "no stealing behavior"}, {"measurement": "K-SAS score", "setting": "kleptomania; 100 mg po bid, over the last few months, baseline 28 (moderate severity)", "result": "6-8"}, {"measurement": "stealing behavior", "setting": "kleptomania; 100 mg/day monotherapy, after 3 weeks", "result": "significant reductions in stealing behavior"}, {"measurement": "Cigarettes smoked per day (mean ± SD)", "setting": "[4]", "result": "3.3 ± 8.2"}, {"measurement": "changes in alanine aminotransferase or aspartate aminotranferase", "setting": "[5]", "result": "no changes"}, {"measurement": "mean effective dose", "setting": "pathological gambling [6]; Example 2, pathological gambling, compared to 600 mg/day used for Parkinson's", "result": 141, "unit": "mg/day"}, {"measurement": "PG-YBOCS mean at endpoint (decrease in gambling symptoms)", "setting": "pathological gambling [6]; Example 2, from a baseline mean of 20.4", "result": 9.25}, {"measurement": "subjects who responded (greater than 35% on the primary outcome measure, the PG-YBOCS)", "setting": "pathological gambling [6]; Example 2, seven of 8 subjects who have completed the study", "result": 87.5, "unit": "%"}, {"measurement": "CGI-Improvement (Investigator), mean (SD) at endpoint", "setting": "pathological gambling [6]; endpoint", "result": "1.88 (0.83)"}, {"measurement": "CGI-Improvement (Patient), mean (SD) at endpoint", "setting": "pathological gambling [6]; endpoint", "result": "2.19 (1.13)"}, {"measurement": "Clinical Global Impression Severity, mean (SD) at endpoint", "setting": "pathological gambling [6]; endpoint, baseline 4.38 (0.74), p-value 0.0098", "result": "3 (1.07)"}, {"measurement": "HAM-A, mean (SD) at endpoint", "setting": "pathological gambling [6]; endpoint, baseline 8.88 (3.14), p-value 0.052", "result": "5.63 (2.97)"}, {"measurement": "HAM-D, mean (SD) at endpoint", "setting": "pathological gambling [6]; endpoint, baseline 9 (2.67), p-value 0.033", "result": "5.63 (3.02)"}, {"measurement": "PG-YBOCS behavior Subscale score, mean (SD) at endpoint", "setting": "pathological gambling [6]; endpoint, baseline 9.63 (3.2), p-value 0.0003", "result": "3.63 (3.96)"}, {"measurement": "PG-YBOCS urges/thought subscale score, mean (SD) at endpoint", "setting": "pathological gambling [6]; endpoint, baseline 10.88 (2.23), p-value 0.0003", "result": "5.38 (2.33)"}, {"measurement": "Sheehan Disability Scale total score, mean (SD) at endpoint", "setting": "pathological gambling [6]; endpoint, baseline 16.75 (6.84), p-value 0.003", "result": "5.38 (5.90)"}, {"measurement": "PG-YBOCS total score, mean (SD) at endpoint", "setting": "pathological gambling [6]; endpoint, baseline 20.5 (3.38), p-value 0.0002", "result": "9.25 (5.3)"}, {"measurement": "G-SAS total score, mean (SD) at endpoint", "setting": "pathological gambling [6]; endpoint, baseline 27.13 (7.54), p-value 0.045", "result": "18.63 (7.91)"}, {"measurement": "mean effective dose", "setting": "pathological gambling [7]; Example 1, pathological gambling", "result": 140, "unit": "mg/day"}, {"measurement": "subjects who responded (greater than 35% on the primary outcome measure, the PG-YBOCS)", "setting": "pathological gambling [7]; Example 1, 100 mg-300 mg per day by mouth for 8 weeks, five of the 6 subjects", "result": 83, "unit": "%"}, {"measurement": "PG-YBOCS mean at endpoint (decrease in gambling symptoms)", "setting": "pathological gambling [7]; Example 1, from a baseline mean of 20.4", "result": 8.0}, {"measurement": "PG-YBOCS, Mean ± SD at EOS", "setting": "pathological gambling [7]; whole group analysis, after treatment (EOS), baseline 21.5 + 3.11", "result": "10.25 ± 6.18"}]}]}
